Values quoted from earlier work in patent US11400063B2, “Early administration of low-dose colchicine after myocardial infarction” (INSTITUT DE CARDIOLOGIE DE MONTREAL, priority 2019, dated 2022).

Tested on: patients with stable coronary disease
Conditions: cited from earlier work
[1] = LoDoCo, colchicine vs control (no colchicine)

SMILES: COc1cc2c(c(OC)c1OC)-c1ccc(OC)c(=O)cc1[C@@H](NC(C)=O)CC2 [Colchicine, colchicine]
- Myocardial infarction, Events N (LoDoCo, N = 250, median follow-up 24 months): 4 N
- Ischemic stroke, HR (95% CI) [1]: 0.23 (0.03-2.03)
- Myocardial infarction, HR (95% CI) [1]: 0.25 (0.08-0.76)
- Ischemic stroke, Events % (LoDoCo): 0.4%
- Ischemic stroke, Events N (LoDoCo): 1 N
- Myocardial infarction, Events % (LoDoCo): 1.6%
- cardiovascular events vs those not receiving colchicine (colchicine 0.5 mg once daily, 532 patients, not placebo-controlled): fewer cardiovascular events
